# Measured values taken from publication PMC3210610, “Studies on Synthesis and Structure-Activity Relationship (SAR) of Derivatives of a New Natural Product from Marine Fungi as Inhibitors of Influenza Virus Neuraminidase” (Marine Drugs, 2011).
# How the values were obtained:
# [1] = target: neuraminidase (NA) of A/GuangdongSB/01/2009 (H1N1) (Influenza A virus (A/Managua/5248.03/2009(H1N1)), UniProt E0V7D1); settings: 0.15 mM 4-MUNANA, MES pH 6.5, 4 mM CaCl2, 37 °C, 1 h preincubation; Figure 2 legend says chemiluminescence assay
# [2] = target: neuraminidase (NA) of A/Guangdong/05/2009 (H1N1) (Influenza A virus (A/Managua/5248.03/2009(H1N1)), UniProt E0V7D1); settings: 0.15 mM 4-MUNANA, MES pH 6.5, 4 mM CaCl2, 37 °C, 1 h preincubation; Figure 2 legend says chemiluminescence assay
smiles,measurement,setting,value
"C=CCOc1cc(C=O)ccc1O [compound 15, 3-(allyloxy)-4-hydroxybenzaldehyde]",IC50,[1],27 µM
same,IC50,[2],25.1 µM
